PubChem BioAssay AID1259407 (Chemical Carcinogenesis Research Information System (CCRIS), 2018)
Activity calls are given as the source filed them. How the calls were made is not given here.

Test system: CCRIS mutagenicity, Ames/micronucleus/aberration tests
Assay: CCRIS mutagenicity studies
Settings: Test System: AMES SALMONELLA TYPHIMURIUM

Measured: mutagenic call

Cc1ccc(Br)cc1
inactive: Strain/Indicator: TA97, Metabolic Activation: HAMSTER, LIVER, S-9, AROCLOR 1254 (10%), Method: PREINCUBATION inactive; negative | Strain/Indicator: TA97, Metabolic Activation: HAMSTER, LIVER, S-9, AROCLOR 1254 (30%), Method: PREINCUBATION inactive; negative | Strain/Indicator: TA97, Metabolic Activation: NONE, Method: PREINCUBATION inactive; negative | Strain/Indicator: TA97, Metabolic Activation: RAT, LIVER, S-9, AROCLOR 1254 (10%), Method: PREINCUBATION inactive; negative | Strain/Indicator: TA97, Metabolic Activation: RAT, LIVER, S-9, AROCLOR 1254 (30%), Method: PREINCUBATION inactive; negative | Strain/Indicator: TA98, Metabolic Activation: HAMSTER, LIVER, S-9, AROCLOR 1254 (10%), Method: PREINCUBATION inactive; negative | Strain/Indicator: TA98, Metabolic Activation: HAMSTER, LIVER, S-9, AROCLOR 1254 (30%), Method: PREINCUBATION inactive; negative | Strain/Indicator: TA98, Metabolic Activation: NONE, Method: PREINCUBATION inactive; negative | Strain/Indicator: TA98, Metabolic Activation: RAT, LIVER, S-9, AROCLOR 1254 (10%), Method: PREINCUBATION inactive; negative | Strain/Indicator: TA98, Metabolic Activation: RAT, LIVER, S-9, AROCLOR 1254 (30%), Method: PREINCUBATION inactive; negative | Strain/Indicator: TA100, Metabolic Activation: HAMSTER, LIVER, S-9, AROCLOR 1254 (10%), Method: PREINCUBATION inactive; negative | Strain/Indicator: TA100, Metabolic Activation: HAMSTER, LIVER, S-9, AROCLOR 1254 (30%), Method: PREINCUBATION inactive; negative | Strain/Indicator: TA100, Metabolic Activation: NONE, Method: PREINCUBATION inactive; negative | Strain/Indicator: TA100, Metabolic Activation: RAT, LIVER, S-9, AROCLOR 1254 (10%), Method: PREINCUBATION inactive; negative | Strain/Indicator: TA100, Metabolic Activation: RAT, LIVER, S-9, AROCLOR 1254 (30%), Method: PREINCUBATION inactive; negative | Strain/Indicator: TA1535, Metabolic Activation: HAMSTER, LIVER, S-9, AROCLOR 1254 (10%), Method: PREINCUBATION inactive; negative | Strain/Indicator: TA1535, Metabolic Activation: HAMSTER, LIVER, S-9, AROCLOR 1254 (30%), Method: PREINCUBATION inactive; negative | Strain/Indicator: TA1535, Metabolic Activation: NONE, Method: PREINCUBATION inactive; negative | Strain/Indicator: TA1535, Metabolic Activation: RAT, LIVER, S-9, AROCLOR 1254 (10%), Method: PREINCUBATION inactive; negative | Strain/Indicator: TA1535, Metabolic Activation: RAT, LIVER, S-9, AROCLOR 1254 (30%), Method: PREINCUBATION inactive; negative | Strain/Indicator: TA1537, Metabolic Activation: HAMSTER, LIVER, S-9, AROCLOR 1254 (30%), Method: PREINCUBATION inactive; negative | Strain/Indicator: TA1537, Metabolic Activation: NONE, Method: PREINCUBATION inactive; negative | Strain/Indicator: TA1537, Metabolic Activation: RAT, LIVER, S-9, AROCLOR 1254 (30%), Method: PREINCUBATION inactive; negative

O=S(=O)(Nc1ccc(Cl)cc1Cl)c1cccc2cccnc12
inactive: Strain/Indicator: TA98, Metabolic Activation: NONE, Method: STANDARD PLATE inactive; negative | Strain/Indicator: TA98, Metabolic Activation: RAT, LIVER, S-9, AROCLOR 1254, Method: STANDARD PLATE inactive; negative | Strain/Indicator: TA100, Metabolic Activation: NONE, Method: STANDARD PLATE inactive; negative | Strain/Indicator: TA100, Metabolic Activation: RAT, LIVER, S-9, AROCLOR 1254, Method: STANDARD PLATE inactive; negative | Strain/Indicator: TA1535, Metabolic Activation: NONE, Method: STANDARD PLATE inactive; negative | Strain/Indicator: TA1535, Metabolic Activation: RAT, LIVER, S-9, AROCLOR 1254, Method: STANDARD PLATE inactive; negative | Strain/Indicator: TA1537, Metabolic Activation: NONE, Method: STANDARD PLATE inactive; negative | Strain/Indicator: TA1537, Metabolic Activation: RAT, LIVER, S-9, AROCLOR 1254, Method: STANDARD PLATE inactive; negative
